Measured values: patent US6936604B2, “Bridged bicyclic amino acid-derived [1,4]benzodiazepine vasopressin receptor antagonists” (Ortho-McNeil Pharmaceutical, Inc., priority 2001, dated 2005)
Marks after values point to notes of the source that are not given here.

Assays:
[1] = biological target: T1, human V2 receptor (Homo sapiens, UniProt P30518); assay: In vitro recombinant vasopressin receptor binding assay (3H-arginine vasopressin displacement), V2; conditions: cloned human V2 receptor membranes, HEK-293 cells
T1 construct: expressed in transfected cells; host or cells: HEK-293
Description: (§1) In Vitro Recombinant Vasopressin Receptor Binding Assay
(§2) Compounds were assessed for their ability to displace ^3H-arginine vasopressin from the human V1a or V2 receptor in HEK-293 cells. Assay buffer is 50 mM Tris-Cl, 5 mM MgCl2, 0.1% BSA (pH 7.5) containing 5 μg/mL of aprotinin, leupeptin, pepstatin, 50 μg/mL bacitracin, and 1 mM Pefabloc. ^3H-vasopressin is ^3H-arginine-8-vasopressin (68.5 Ci/mmol, final concentration in assay is 0.65-0.75 nM). Into wells of 96-well round bottom polypropylene plates were added buffer, test compound, membrane (containing cloned human V1a or V2 receptor) and ^3H-vasopressin. The reaction plates were allowed to sit at room temperature for one hour. The samples were filtered through Unifilter GF/C plates (presoaked in 0.3 polyethyleneimine). The plates were washed 5 times with cold physiological saline containing 0.05% Tween 20. After drying, the bottom of the filter plates were sealed and 0.025 mL of Microscint-20 was added to each filter. The top of the plate was sealed, and the plate was counted.

[2] = test system: conscious hydrated male rats; assay: Diuresis study, acute diuretic effect after oral administration; assay type: in vivo, Sprague Dawley rats; conditions: 4 hours urine collection, mean±SE
Description: The acute diuretic effect of compounds of the invention after oral administration was tested according to the procedure described herein.
Mature male Sprague Dawley rats, 200-300 gms, from Charles River Labs Inc. were housed one rat per cage, in a rodent room. Room temperature was maintained at […] and humidity at 30-70%. Room lighting was on a 12 hrs light/12 hrs dark cycle. Rats were fed laboratory rodent diet, #5001 (supplied from Purina Mills, St.Louis, Mo. via W. F. Fisher, Bound Brook, N.J.).
Four different concentrations of test compound were prepared. For each dose, compound was prepared as a uniform suspension in 0.5% methylcellulose vehicle using a water bath sonicator to ensure uniform suspension and dosed in a volume of 2 ml/kg.
All animals were fasted for 18 hours and weights were taken and recorded for each animal. Animals were dosed orally with drug via gavage needle. After oral dosing, animals were placed into metabolism racks for 4 hours. The urine was collected and the volume measured. Aliquots of 0.5 mL were stored at 4° C. for later analysis.
Each value represents the mean±SE. *Data has a p value of <0.05 versus vehicle using Dunnett's Multiple Comparison Test. **Data has a p value of <0.01 versus vehicle. ^aNumber of animals in parentheses represent the number of animals providing osmolality values (if different than the number of animals providing urine volume values).

[3] = biological target: T2, human V1a receptor (Homo sapiens, UniProt P37288); assay: In vitro recombinant vasopressin receptor binding assay (3H-arginine vasopressin displacement), V1a; conditions: cloned human V1a receptor membranes, HEK-293 cells
T2 construct: expressed in transfected cells; host or cells: HEK-293
T2 sequence (P37288 whole entry): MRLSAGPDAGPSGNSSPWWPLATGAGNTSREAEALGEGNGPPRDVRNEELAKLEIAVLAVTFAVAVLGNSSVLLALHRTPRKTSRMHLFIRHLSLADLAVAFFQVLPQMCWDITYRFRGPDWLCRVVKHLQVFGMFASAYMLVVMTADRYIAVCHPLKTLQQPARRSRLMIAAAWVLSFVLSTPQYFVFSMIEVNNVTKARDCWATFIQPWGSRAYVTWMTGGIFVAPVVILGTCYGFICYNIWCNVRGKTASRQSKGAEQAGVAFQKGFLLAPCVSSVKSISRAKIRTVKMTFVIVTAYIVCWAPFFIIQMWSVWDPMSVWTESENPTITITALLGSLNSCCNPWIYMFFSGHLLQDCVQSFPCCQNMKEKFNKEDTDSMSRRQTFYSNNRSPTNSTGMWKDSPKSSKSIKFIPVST
Description: as §1, §2

`O=C(Nc1ccc(C(=O)N2CC3C4CCC(CC4)N3Cc3ccccc32)c(Cl)c1)c1ccccc1-c1ccccc1` (racemic) [Compound 2, N-[4-[(6,6a,7,8,9,10-hexahydro-7,10-ethanopyrido[2,1-c][1,4]benzodiazepin-5(12H)-yl)carbonyl]-3-chlorophenyl]-[1,1′-biphenyl]-2-carboxamide] gave an IC50 [1] of 4 nM.
Compound `O=C(Nc1ccc(C(=O)N2C[C@@H]3C4CCC(C4)N3Cc3ccccc32)c(Cl)c1)c1ccccc1-c1ccccc1` (mixture of isomers) [Compound 3, N-[4-[[(6aS)-6,6a,7,8,9,10-hexahydro-7,10-methanopyrido[2,1-c][1,4]benzodiazepin-5(12H)-yl]carbonyl]-3-chlorophenyl]-[1,1′-biphenyl]-2-carboxamide] has an IC50 [1] of 15 nM.
In the case of `O=C(Nc1ccc(C(=O)N2C[C@@H]3C4CCC(C4)N3Cc3ccccc32)c(Cl)c1)c1ccccc1-c1ccccc1` (stereo partly drawn) [Compound 4, N-[4-[[(6aS)-6,6a,7,8,9,10-hexahydro-7,10-methanopyrido[2,1-c][1,4]benzodiazepin-5(12H)-yl]carbonyl]-3-chlorophenyl]-[1,1′-biphenyl]-2-carboxamide], the “Urine Osmolality” value ([2]; 0.3 mg/Kg oral) is reported as 444 ± 79* mOsm/kg, the “Urine Volume” value ([2]; 0.3 mg/Kg oral) is reported as 2.5 ± 0.3 mL and the “Urine Osmolality” value ([2]; 1.0 mg/Kg oral) is reported as 299 ± 34* mOsm/kg. The “Urine Volume” value ([2]; 1.0 mg/Kg oral) was 6.0 ± 0.7* mL, the “Urine Osmolality” value ([2]; 3.0 mg/Kg oral) was 180 ± 9* mOsm/kg and the “Urine Volume” value ([2]; 3.0 mg/Kg oral) was 15.1 ± 1.4* mL. For the same compound, the “Urine Osmolality” value ([2]; 10 mg/Kg oral) was 138 ± 11* mOsm/kg, the “Urine Volume” value ([2]; 10 mg/Kg oral) was 29.9 ± 2.0* mL and the IC50 [1] was 4 nM. The IC50 [3] was 24 nM.
`O=C(Nc1ccc(C(=O)N2C[C@H]3C4CCC(C4)N3Cc3ccccc32)c(Cl)c1)c1ccccc1-c1ccccc1` (stereo partly drawn) [Compound 5, N-[4-[[(6aR)-6,6a,7,8,9,10-hexahydro-7,10-methanopyrido[2,1-c][1,4]benzodiazepin-5(12H)-yl]carbonyl]-3-chlorophenyl]-[1,1′-biphenyl]-2-carboxamide] was tested, and the “Urine Osmolality” value ([2]; 0.3 mg/Kg oral) was 408 ± 37* mOsm/kg, the “Urine Volume” value ([2]; 0.3 mg/Kg oral) was 1.4 ± 0.1* mL and the “Urine Osmolality” value ([2]; 1.0 mg/Kg oral) was 303 ± 29* mOsm/kg. The “Urine Volume” value ([2]; 1.0 mg/Kg oral) was 3.4 ± 0.4* mL, the “Urine Osmolality” value ([2]; 3.0 mg/Kg oral) was 238 ± 18* mOsm/kg and the “Urine Volume” value ([2]; 3.0 mg/Kg oral) was 9.4 ± 1.1* mL. For the same compound, the “Urine Osmolality” value ([2]; 10 mg/Kg oral) was 172 ± 9* mOsm/kg, the “Urine Volume” value ([2]; 10 mg/Kg oral) was 19.5 ± 1.4* mL and the IC50 [1] was 15 nM.
For `Cc1ccc(-c2ccccc2C(=O)Nc2ccc(C(=O)N3C[C@@H]4C5CCC(C5)N4Cc4cc(Cl)ccc43)cc2)cc1` (stereo partly drawn) [Compound 6, N-[4-[[(6aS)-2-chloro-6,6a,7,8,9,10-hexahydro-7,10-methanopyrido[2,1-c][1,4]benzodiazepin-5(12H)-yl]carbonyl]phenyl]-4′-methyl-[1,1′-biphenyl]-2-carboxamide], the “Urine Osmolality” value ([2]; 1.0 mg/Kg oral) was 387 ± 15 mOsm/kg, the “Urine Volume” value ([2]; 1.0 mg/Kg oral) was 2.9 ± 0.2 mL and the “Urine Osmolality” value ([2]; 3.0 mg/Kg oral) was 226 ± 9** mOsm/kg. For the same compound, the “Urine Volume” value ([2]; 3.0 mg/Kg oral) was 5.8 ± 0.5** mL, the “Urine Osmolality” value ([2]; 10 mg/Kg oral) was 159 ± 9** mOsm/kg and the “Urine Volume” value ([2]; 10 mg/Kg oral) was 17.8 ± 1.3** mL. For the same compound, the IC50 [1] was 5 nM and the IC50 [3] was 24 nM.
`Cc1ccc(-c2ccccc2C(=O)Nc2ccc(C(=O)N3C[C@@H]4C5CCC(C5)N4Cc4ccccc43)c(Cl)c2)cc1` (stereo partly drawn) [Compound 7, N-[4-[[(6aS)-6,6a,7,8,9,10-hexahydro-7,10-methanopyrido[2,1-c][1,4]benzodiazepin-5(12H)-yl]carbonyl]-3-chlorophenyl]-4′-methyl-[1,1′-biphenyl]-2-carboxamide] was tested, and the IC50 [1] was 3 nM and the IC50 [3] was 35 nM.
`O=C(Nc1ccc(C(=O)N2C[C@@H]3C4CCC(C4)N3Cc3cc(Cl)ccc32)cc1)c1ccccc1-c1ccc(F)cc1` (stereo partly drawn) [Compound 9, N-[4-[[(6aS)-2-chloro-6,6a,7,8,9,10-hexahydro-7,10-methanopyrido[2,1-c][1,4]benzodiazepin-5(12H)-yl]carbonyl]phenyl]-4′-fluoro-[1,1′-biphenyl]-2-carboxamide] was tested, and the IC50 [1] was 26 nM and the IC50 [3] was 68 nM.
`O=C(Nc1ccc(C(=O)N2C[C@@H]3C4CCC(C4)N3Cc3cc(Cl)ccc32)cc1)c1ccccc1F` (stereo partly drawn) [Compound 10, N-[4-[[(6aS)-2-chloro-6,6a,7,8,9,10-hexahydro-7,10-methanopyrido[2,1-c][1,4]benzodiazepin-5(12H)-yl]carbonyl]phenyl]-2-fluoro-benzamide] gave an IC50 [1] of 10 nM and an IC50 [3] of 5 nM.
`O=C(Nc1ccc(C(=O)N2C[C@@H]3C4CCC(C4)N3Cc3cc(Cl)ccc32)cc1)c1ccccc1Cl` (stereo partly drawn) [Compound 11, N-[4-[[(6aS)-2-chloro-6,6a,7,8,9,10-hexahydro-7,10-methanopyrido[2,1-c][1,4]benzodiazepin-5(12H)-yl]carbonyl]phenyl]-2-chloro-benzamide] showed an IC50 [1] of 7 nM and an IC50 [3] of 4 nM.
`O=C(Nc1ccc(C(=O)N2C[C@@H]3C4CCC(CC4)N3Cc3ccccc32)c(Cl)c1)c1ccccc1-c1ccccc1` [Compound 13, N-[4-[[(6aS)-6,6a,7,8,9,10-hexahydro-7,10-ethanopyrido[2,1-c][1,4]benzodiazepin-5(12H)-yl]carbonyl]-3-chlorophenyl]-[1,1′-biphenyl]-2-carboxamide] showed an IC50 [1] of 24 nM.
With `Cc1ccc(F)cc1C(=O)Nc1ccc(C(=O)N2C[C@@H]3C4CCC(CC4)N3Cc3ccccc32)c(Cl)c1` [Compound 14, N-[4-[[(6aS)-6,6a,7,8,9,10-hexahydro-7,10-ethanopyrido[2,1-c][1,4]benzodiazepin-5(12H)-yl]carbonyl]-3-chlorophenyl]-5-fluoro-2-methyl-benzamide] the IC50 [1] was 19 nM.
For `O=C(Nc1ccc(C(=O)N2C[C@@H]3C4CCC(CC4)N3Cc3cc(Cl)ccc32)cc1)c1ccccc1Cl` [Compound 15, N-[4-[[(6aS)-2-chloro-6,6a,7,8,9,10-hexahydro-7,10-ethanopyrido[2,1-c][1,4]benzodiazepin-5(12H)-yl]carbonyl]phenyl]-2-chloro-benzamide], the IC50 [1] was 35 nM and the IC50 [3] was 13 nM.
For `Cc1ccc(-c2ccccc2C(=O)Nc2ccc(C(=O)N3C[C@@H]4C5CCC(CC5)N4Cc4cc(Cl)ccc43)cc2)cc1` [Compound 16, N-[4-[[(6aS)-2-chloro-6,6a,7,8,9,10-hexahydro-7,10-ethanopyrido[2,1-c][1,4]benzodiazepin-5(12H)-yl]carbonyl]phenyl]-4′-methyl-[1,1′-biphenyl]-2-carboxamide], the IC50 [1] was 72 nM and the IC50 [3] was 59 nM.
Compound “N-[4-[[(6aS)-2-chloro-6,6a,7,8,9,10-hexahydro-7,10-methanopyrido[2,1-c][1,4]benzodiazepin-5(12H)-yl]carbonyl]-3-chlorophenyl]-2-(trifluoromethyl)-benzamide [Compound 12]” has an IC50 [1] of 15 nM and an IC50 [3] of 10 nM.
